Here are results for 1 compound from PMC4793304 (Bioscience Reports, 2016).

Read-outs that look alike come from different tables or passages of the source.

For series [1], the system named is human Pgp. The settings on record: read-out: Km for ATPase activation; Caco-2 membrane vesicles containing human Pgp; cited from earlier work.
Series [2] has as its target T1, mouse Pgp transporter (Mus musculus, UniProt P21447). The settings on record: 250 μM digoxin.
Description: Control acrylamide titrations were performed in the presence of N-acetyl-L-tryptophanamide (NATA) to estimate the degree of non-specific quenching [55]. Fluorescence intensities were corrected for with eqn (3) [57]. To produce the Stern–Volmer plots, the Fcorrected,0/Fcorrected was plotted as a function of the acrylamide concentration. The degree of dynamic tryptophan quenching was estimated from the slopes of the Stern–Volmer curves, which is related to KSV by Fcorrected,0/Fcorrected = 1 + KSV[Q]
The target in series [3] is T1, mouse Pgp transporter. The settings on record: proton near the 1,4 β-linkage; 250 μM digoxin, 1 μM Pgp.
Description: The STDD NMR procedure for membrane proteins was performed as described in [68]. […] The STDD NMR experiments were performed with a double pulsed field gradient spin echo pulse sequence to suppress background water, a 2s train of 50 ms shaped saturation pulses to selectively excite the protein and a total relaxation delay of 5 s [63]. […] Control experiments were performed under identical conditions with liposomes and the drugs. To produce the STDD NMR spectrum, ^1H STD NMR spectrum of liposomes with drugs was subtracted from the ^1H STD NMR spectrum of Pgp reconstituted in liposomes with drugs (ΔI). […] The STDD amplification factor was calculated using the following equation based on the STD amplification factor (eqn 5) [63]:
5 STDDamplificationfactor=L/PΔI/I0
where [P] is the protein concentration and I0 is the amplitude of the ^1H NMR peaks in the absence of saturating pulses.
Series [4] addresses T1, mouse Pgp transporter.
Excerpt: (§1) Drug-induced quenching of protein fluorescence with Pgp reconstituted in liposomes was investigated on an Olis DM 45 spectrofluorimeter (Olis Corp). […] Drug-induced fluorescence quenching was corrected (Fcorrected) for background fluorescence, dilution and inner filter effects with eqn (3) [57]:
3 Fcorrected=F−B10^ɛexbex+ɛembemQ/2
(§2) where F is the measured protein fluorescence, B is the background and [Q] is the quenching ligand concentration. The molar absorption coefficients (ε) for excitation and emission are εex and εem respectively. […] The pathlength (b) along the excitation and emission axes are bex and bem respectively. Drug-induced quenching of protein fluorescence from complexation of the ligand to the protein is known as static quenching, and can be used to estimate the drug's affinity. Drug-induced fluorescence quenching from random collisions with the protein is known as dynamic quenching [57]. Regardless of the nature of the quenching, the fluorescence quenching curves were fit to eqn (4) [57]:
4 Fcorrected=Fcorrected,0/1+KQ
(§3) where Fcorrected,0 is the protein fluorescence in the absence of a quenching ligand and K is the association constant (KA) or the Stern–Volmer quenching constant (KSV) in the case of a static and dynamic quenching processes respectively.
Series [5] addresses T1, mouse Pgp transporter. The series is described as follows: biochemical.
Excerpt: (§4) Because of the complexity of the model shown in Figure 6A, the kinetics curves in Figures 6B and 6C were fit using the COPASI software package.
Series [6] concerns human Pgp. The settings on record: read-out: Km for ATPase activation; human Pgp-enriched insect cell membranes; cited from earlier work.
The test system of series [7] is Pgp. The settings on record: read-out: Km for ATPase activation (implied); CR1R12 cells; maximal activation not reached at 1000 μM digoxin; cited from earlier work.
The target in series [8] is T1, mouse Pgp transporter. This is another data set of the same source.
Excerpt: as §4
The target in series [9] is T1, mouse Pgp transporter. In words: biochemical. The source holds these as a separate data set.
Excerpt: as §1
3 Fcorrected=F−B10^ɛexbex+ɛembemQ/2
as §2
4 Fcorrected=Fcorrected,0/1+KQ
as §3
Series [10] has as its system human Pgp from Caco-2 cells. Particulars: read-out: Km for digoxin transport; cited from earlier work.
The target in series [11] is T1, mouse Pgp transporter. This is another data set of the same source.

T1 sequence (P21447 whole entry): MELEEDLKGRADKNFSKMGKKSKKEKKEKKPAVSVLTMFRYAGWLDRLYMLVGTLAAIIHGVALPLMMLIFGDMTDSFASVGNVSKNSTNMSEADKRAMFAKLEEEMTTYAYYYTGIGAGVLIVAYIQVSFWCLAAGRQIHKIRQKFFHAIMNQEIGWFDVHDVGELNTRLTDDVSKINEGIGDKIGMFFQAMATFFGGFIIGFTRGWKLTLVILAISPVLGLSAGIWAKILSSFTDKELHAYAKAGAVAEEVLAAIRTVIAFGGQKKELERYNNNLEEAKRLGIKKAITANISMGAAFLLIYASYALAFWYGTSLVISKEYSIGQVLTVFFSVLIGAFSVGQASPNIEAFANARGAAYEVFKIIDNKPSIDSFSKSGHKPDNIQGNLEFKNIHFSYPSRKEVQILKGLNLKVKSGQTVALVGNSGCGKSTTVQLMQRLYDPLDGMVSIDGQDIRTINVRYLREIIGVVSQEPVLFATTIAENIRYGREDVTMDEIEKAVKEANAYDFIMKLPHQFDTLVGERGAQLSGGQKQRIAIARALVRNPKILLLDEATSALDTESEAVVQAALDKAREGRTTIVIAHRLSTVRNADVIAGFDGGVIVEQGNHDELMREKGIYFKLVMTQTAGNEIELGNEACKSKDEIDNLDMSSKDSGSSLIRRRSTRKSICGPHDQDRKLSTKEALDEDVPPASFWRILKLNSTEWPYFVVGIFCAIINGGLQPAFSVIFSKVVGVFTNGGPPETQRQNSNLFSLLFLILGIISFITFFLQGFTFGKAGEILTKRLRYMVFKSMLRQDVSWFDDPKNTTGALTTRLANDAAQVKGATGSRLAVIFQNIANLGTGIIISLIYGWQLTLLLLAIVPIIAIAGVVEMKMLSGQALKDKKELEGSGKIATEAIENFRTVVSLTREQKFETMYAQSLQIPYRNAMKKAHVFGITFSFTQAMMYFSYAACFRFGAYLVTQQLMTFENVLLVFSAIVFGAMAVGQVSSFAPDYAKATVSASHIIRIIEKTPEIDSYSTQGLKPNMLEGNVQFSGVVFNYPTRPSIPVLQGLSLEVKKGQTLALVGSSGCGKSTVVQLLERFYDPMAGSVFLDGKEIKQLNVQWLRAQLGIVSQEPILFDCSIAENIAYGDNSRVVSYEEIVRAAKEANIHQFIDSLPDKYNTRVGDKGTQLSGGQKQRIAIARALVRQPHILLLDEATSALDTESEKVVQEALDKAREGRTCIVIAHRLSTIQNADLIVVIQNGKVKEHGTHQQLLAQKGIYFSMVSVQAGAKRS

A word on the Km: it is the concentration of substrate that gives half-maximal velocity. For orientation: Kd means a measure of binding affinity in units of concentration. Regarding `C[C@H]1O[C@@H](O[C@H]2[C@@H](O)C[C@H](O[C@H]3[C@@H](O)C[C@H](O[C@H]4CC[C@@]5(C)[C@H](CC[C@@H]6[C@@H]5C[C@@H](O)[C@]5(C)[C@@H](C7=CC(=O)OC7)CC[C@]65O)C4)O[C@@H]3C)O[C@@H]2C)C[C@H](O)[C@@H]1O` [digoxin], the Km in series [1] was 1.2 µM; in [6], 83.7 µM; in series [7] it was more than 500 µM; in series [10] it was 385 µM. Further, the “KSV (acrylamide Stern-Volmer slope of Pgp)” value in series [2] stood at 2.29 ± 0.12 M⁻¹. In addition, the “highest STDD amplification factor” value in series [3] is reported as approximately 8. In addition, the “K from fluorescence quenching” value in series [4] (37°C, no verapamil) turned out to be 0.0030 ± 0.0008 µM⁻¹. Besides, in series [4] (excitation 280 nm, emission 333 nm, 25°C), the “quenching of Pgp fluorescence at saturating digoxin” value is approximately 10%. Further, the Kd in series [5] (KD3 (digoxin, DDI model), in the absence of verapamil) was 239 µM; in [5] (KD4, affinity of digoxin to Pgp in the presence of verapamil, estimated indirectly by fitting with COPASI), 292 ± 89 µM; in [5] (average KD3, average from fitting all curves), 206 ± 53 µM; in series [9] it was 100 ± 18 µM. Further, the “average VMAX3” value in [8] (average from fitting all curves) was 1981 ± 207 nmol/min/mg. Also, the “VMAX4,5, ATPase activation from simultaneous binding of digoxin and verapamil” value in series [8] (both drugs bound, estimated by fitting with COPASI) is 121 ± 139 nmol/min/mg. For the same compound, the “VMAX3 (digoxin, DDI model)” value in [8] (in the absence of verapamil) was 1983 nmol/min/mg. In [11] (50 nM Pgp in liposomes, verapamil maximum at 8 μM), the “maximum Pgp-coupled ATPase activity reached” value is approximately 1300 nmol/min/mg. In [11] (relative to basal activity, verapamil at 8 μM), the “fold activation of ATPase at maximum” value was approximately 2 fold. Further, the “VMAX of drug-induced ATP hydrolysis” value in [11] (verapamil fit to substrate inhibition eqn 2, digoxin fit to Michaelis-Menten eqn 1) amounted to 1344 ± 149.8 nmol/min/mg.
